Source: patent US9056835B2, “LPA2 receptor-specific benzoic acid derivatives” (University of Tennessee Research Foundation, priority 2012, dated 2015)

Target: T1, LPA3 (Homo sapiens, UniProt Q9UBY5)
T1 construct: expressed in transfected cells
T1 sequence (Q9UBY5 1-353): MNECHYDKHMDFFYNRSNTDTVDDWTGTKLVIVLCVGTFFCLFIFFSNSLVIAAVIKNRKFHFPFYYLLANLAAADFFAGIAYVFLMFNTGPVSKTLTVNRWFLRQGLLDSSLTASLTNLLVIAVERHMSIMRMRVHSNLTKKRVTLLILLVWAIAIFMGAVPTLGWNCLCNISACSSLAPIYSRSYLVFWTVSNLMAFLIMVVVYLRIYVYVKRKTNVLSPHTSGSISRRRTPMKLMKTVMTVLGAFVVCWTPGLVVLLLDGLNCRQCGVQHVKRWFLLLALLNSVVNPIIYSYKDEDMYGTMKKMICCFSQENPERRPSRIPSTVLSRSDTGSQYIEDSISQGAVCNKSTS
Assay: LPA receptor-mediated Ca2+ mobilization assay, LPA3
Assay type: cell-based
Conditions: for LPA3 Imax (%): inhibition by 10 μM compound of ~EC75 LPA 18:1 Ca2+ response; for inhibition of LPA3 Ca2+ response: 10 μM, ~EC75 LPA 18:1
Procedure: Similarity searches were performed separately using each fingerprint to quantitate similarity. Hits meeting the 80% similarity threshold from each search were ranked based on the Tanimoto coefficient measure of similarity to a target molecule NSC12404, and the top 75 unique hits from each fingerprint search were selected for further analysis. The 225 compounds selected for further analysis were clustered based on Tanimoto coefficients calculated using Molecular ACCess System-key fingerprints (MACCS keys) and evaluated using the diversity subset function implemented in MOE. This selected a diverse subset of 27 compounds for biological evaluation by choosing the middle compounds in each cluster. These 27 compounds were tested in Ca^2+ mobilization assays at a concentration of 10 μM using stable cell lines individually expressing LPA2 and also in vector-transfected control cells. Hits activating LPA2 were further tested using cells expressing the other established and putative LPA GPCRs. […] They arbitrarily selected GRI977143 for further characterization in cell-based assays.
J Biol Chem (2009) 284(25): 17304-17319). […] The cells were loaded with Fura-2-acetoxymethyl esther (Fura-2/AM) in Krebs buffer containing 0.01% pluronic acid for 30 min and rinsed with Krebs buffer before measuring Ca^2+ mobilization. The ratio of peak emissions at 510 nm after 2 min of ligand addition was determined for excitation wavelengths of 340 nm/380 nm. All samples were run in quadruplicate. […] The half maximally effective concentration (EC50), and inhibitory constant (Ki) values were calculated by fitting a sigmoid function to dose-response data points using KaleidaGraph software (version 4.1, Synergy Software; […]).
Mouse embryonic fibroblast (MEF) cells were isolated from E13.5 LPA1&2 double knockout (DKO) embryos. MEFs were transduced with empty vector or LPA2-containing lentiviruses and selected with 1.5 μg/ml puromycin. Cells were maintained in Dulbecco's modified Eagle medium (DMEM) supplemented with 10% (V/V) fetal bovine serum (FBS), 2 mM L-glutamine, 100 U/mL penicillin, and 100 μg/mL streptomycin. Serum-free medium contained 0.1% (W/V) BSA in DMEM. The rat intestinal epithelial cell line 6 (IEC-6) was obtained from the American Type Culture Collection (Rockville, Md.) at passage 13; passages 16-21 were used in all experiments. IEC-6 cells were maintained in a humidified 37° C. incubator in an atmosphere of 90% air and 10% CO2. Growth medium consisted of DMEM supplemented with 5% heat inactivated FBS, 10 μg/mL insulin, and 50 μg/mL gentamycin. The composition of the serum-starvation medium was the same as that of the full growth medium except that it contained no FBS. The McArdle rat hepatoma cell line (RH7777) stably expressing LPA2 receptors was a gift from Dr. Fumikazu Okajima (Gunma University, Maebashi, Japan). RH7777 cells stably expressing LPA1 or LPA3 receptors were generated in-house and had been characterized earlier. Wild type and LPA receptor (LPAR) stably transfected RH7777 cells were grown in DMEM supplemented with 10% FBS and 2 mM L-glutamine in the presence of 250 μg/ml G418. Chinese hamster ovary (CHO) cells stably expressing either vector or LPA4 receptor were a kind gift from Dr. Takao Shimizu (Tokyo University; Tokyo, Japan). Cells were cultured in Ham's F12 medium containing 10% FBS, 2 mM L-glutamine, and 350 μg/ml G418. Rat neuroblastoma cells (B103) were transduced with the lentivirus harboring wild type of FLAG-LPA5 and selected with puromycin to establish the stable cell lines. The stable cells were maintained in DMEM supplemented with 10% FBS and 0.4 μg/ml puromycin. GPR87- and P2Y10-expressing CHO cells and vector-transfected control cells were a gift from Dr. Norihisha Fujita (Ritsumeikan University; Shiga, Japan).

| Molecule | LPA3 Imax (%) | inhibition of LPA3 Ca2+ response | Ki (antagonist, Ca2+ mobilization, read-out: LPA3 K) [nM] | EC50 (agonist, Ca2+ mobilization) [nM] |
| --- | --- | --- | --- | --- |
| O=C(O)c1cc(Cl)c(Cl)cc1C(=O)Nc1ccc2c(c1)C(=O)c1ccccc1-2 [Compound H2L5547924] | 66 | – | – | – |
| O=C(O)c1ccccc1C(=O)Nc1ccc2c(c1)C(=O)c1ccccc1C2=O [Compound H2L5828102] | 100 | fully inhibited | 1500 | – |
| O=C(O)c1ccccc1SCCCN1C(=O)c2cccc3cccc(c23)C1=O [GRI977143] | 55 | inhibited LPA3 | – | – |
| O=C(O)c1ccccc1C(=O)Nc1ccc2c(c1)C(=O)c1ccccc1-2 [NSC12404] | 61 | inhibited LPA3 | – | – |
| octadecenyl thiophosphate [OTP] | – | – | – | 297 |
